# From paper PMC12421852, “AcrIF11 is a potent CRISPR-specific ADP-ribosyltransferase encoded by phage and plasmid” (mBio, 2025)
# Molecular target: T1, AcrIF11Pae2 (Escherichia coli, UniProt A0AAB0B261)
# T1 construct: pET28b in E. coli BL21(DE3); 13C/15N-labelled
# Test: NMR chemical shift perturbation on NAD titration
# Type: binding
# Details: NMR structure 8DWQ is without NAD; structure sample 50 mM KPi pH 7.4, 298 K; titration conditions not stated
# T1 sequence (A0AAB0B261 entry or part of it): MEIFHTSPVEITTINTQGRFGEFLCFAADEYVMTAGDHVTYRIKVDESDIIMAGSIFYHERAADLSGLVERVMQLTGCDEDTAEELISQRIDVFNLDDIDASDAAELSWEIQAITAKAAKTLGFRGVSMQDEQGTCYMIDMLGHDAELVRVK
compound,measurement,value
NC(=O)c1ccc[n+]([C@@H]2O[C@H](COP(=O)(O)OP(=O)(O)OC[C@H]3O[C@@H](n4cnc5c(N)ncnc54)[C@H](O)[C@@H]3O)[C@@H](O)[C@H]2O)c1 [NAD],NMR chemical shift perturbation on NAD titration,"upon titration of cofactor NAD, the largest chemical shift perturbations occurred in the beta sheet region"
